Data on 35 molecules can be found in US9597314B2, “Beta-lactamylalkanoic acids for treating premenstrual disorders” (AZEVAN PHARMACEUTICALS, INC., priority 2005, dated 2017).

A value given as a limit tells only on which side of the number the result lay.

Usually IC50 stands for the concentration that inhibits the measured activity by half. The term Ki denotes the equilibrium dissociation constant of an inhibitor or competing ligand from its target. Read a low Ki as tighter binding.

The assay addresses V1a (Homo sapiens, UniProt P37288). The assay can be described thus: Human vasopression V1a receptor binding assay. Also on record: host or cells: CHO cells (hV1a cell line), whole adherent cells. The conditions noted are these: hV1a cell line (CHO); for IC50: 1 nM 3H-AVP, Table 17, read-out: V1a Binding Affinity (IC50 (nM)); for Ki: Table 18. As to the method:
Human vasopression V1a receptor binding assay. A cell line expressing the human V1a receptor in CHO cells (henceforth referred to as the hV1a cell line) was obtained from Dr. Michael Brownstein, NIMH, Bethesda, Md., USA. The hV1a cDNA sequence is described by Thibonnier et al., Journal of Biological Chemistry, 269, 3304-3310 (1994), and the expression method was the same as described by Morel et al. (1992). The hV1a cell line was grown in alpha-MEM with 10% fetal bovine serum and 250 ug/ml G418 (Gibco, Grand Island, N.Y., USA). For competitive binding assay, hV1a cells were plated into 6-well culture plate at 1:10 dilution from a confluency flask, and maintained in culture for at least two days. Culture medium was then removed, cells were washed with 2 ml binding buffer (25 mM Hepes, 0.25% BSA, 1×DMEM, PH=7.0). To each well, 990 μl binding buffer containing 1 nM 3H-AVP was added, and followed by 10 μl series diluted Example compounds dissolved in DMSO. […] 100 nM cold AVP (Sigma) was used to assess non-specific binding. Cells were incubated for 45 minutes at 37° C., assay mixture was removed and each well was washed three times with PBS (pH=7.4). 1 ml 2% SDS was added per well and plates were let sit for 30 minutes. The whole content in a well was transferred to a scintillation vial. Each well was rinsed with 0.5 ml PBS which was then added to the corresponding vial. Scintillation fluid (Ecoscint, National Diagnostics, Atlanta, Ga.) was then added at 3 ml per vial. Samples were counted in a liquid scintillation counter (Beckman LS3801). IC50 values were calculated by Prism Curve fitting software.
All of the alkanedioic esters and amides exemplified in the foregoing examples dissolved in DMSO were tested in this assay. Binding curves were generated according to methods described by Thibonnier et al. (1994). [^3H]-AVP was added to the hV1a cell cultures followed by 10 fold dilutions of each test compound.

Chain of V1a (P37288 whole entry): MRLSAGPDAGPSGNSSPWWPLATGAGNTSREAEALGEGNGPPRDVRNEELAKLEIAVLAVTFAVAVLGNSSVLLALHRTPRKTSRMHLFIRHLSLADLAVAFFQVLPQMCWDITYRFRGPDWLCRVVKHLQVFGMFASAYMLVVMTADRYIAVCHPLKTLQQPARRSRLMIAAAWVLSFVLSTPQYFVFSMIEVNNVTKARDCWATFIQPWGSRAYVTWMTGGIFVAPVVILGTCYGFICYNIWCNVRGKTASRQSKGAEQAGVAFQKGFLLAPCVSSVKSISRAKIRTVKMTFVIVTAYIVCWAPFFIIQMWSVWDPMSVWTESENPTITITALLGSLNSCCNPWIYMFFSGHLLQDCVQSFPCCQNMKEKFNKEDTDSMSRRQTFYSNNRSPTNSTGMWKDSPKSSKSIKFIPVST

For `O=C(NCc1cc(Cl)cc(Cl)c1)[C@H](CCC(=O)N1CCN(C2CCCCC2)CC1)N1C(=O)[C@@H](N2C(=O)OC[C@@H]2c2ccccc2)[C@H]1/C=C/c1ccccc1` [Example 174], the concentration for half-maximal inhibition (IC50) worked out at 1.46 nM and the Ki turned out to be 0.89 nM. In the case of `O=C(NCc1cc(Cl)ccc1Cl)[C@H](CCC(=O)N1CCN(C2CCCCC2)CC1)N1C(=O)[C@@H](N2C(=O)OC[C@@H]2c2ccccc2)[C@H]1/C=C/c1ccccc1` [Example 175], the IC50 was 4.56 nM and the affinity, expressed as Ki, was 2.79 nM. As for `O=C(NCc1cccc(Cl)c1Cl)[C@H](CCC(=O)N1CCN(C2CCCCC2)CC1)N1C(=O)[C@@H](N2C(=O)OC[C@@H]2c2ccccc2)[C@H]1/C=C/c1ccccc1` [Example 176], the IC50 turned out to be 0.61 nM.

With `O=C(NCc1cc(C(F)(F)F)ccc1F)[C@H](CCC(=O)N1CCN(C2CCCCC2)CC1)N1C(=O)[C@@H](N2C(=O)OC[C@@H]2c2ccccc2)[C@H]1/C=C/c1ccccc1` [Example 177], the IC50 was 0.67 nM.

For the molecule `O=C(NCc1ccc(F)c(C(F)(F)F)c1)[C@H](CCC(=O)N1CCN(C2CCCCC2)CC1)N1C(=O)[C@@H](N2C(=O)OC[C@@H]2c2ccccc2)[C@H]1/C=C/c1ccccc1` [Example 178], the IC50 is under 50 nM.

Regarding `O=C(NCc1cc(F)cc(C(F)(F)F)c1)[C@H](CCC(=O)N1CCN(C2CCCCC2)CC1)N1C(=O)[C@@H](N2C(=O)OC[C@@H]2c2ccccc2)[C@H]1/C=C/c1ccccc1` [Example 179], the IC50 was determined as 0.81 nM. For the molecule `O=C(NCc1cccc(C(F)(F)F)c1F)[C@H](CCC(=O)N1CCN(C2CCCCC2)CC1)N1C(=O)[C@@H](N2C(=O)OC[C@@H]2c2ccccc2)[C@H]1/C=C/c1ccccc1` [Example 180], the IC50 is 0.33 nM. With `O=C(NCc1ccc(Cl)c(C(F)(F)F)c1)[C@H](CCC(=O)N1CCN(C2CCCCC2)CC1)N1C(=O)[C@@H](N2C(=O)OC[C@@H]2c2ccccc2)[C@H]1/C=C/c1ccccc1` [Example 181], the IC50 was under 50 nM. Regarding `O=C(NCc1ccccc1C(F)(F)F)[C@H](CCC(=O)N1CCN(C2CCCCC2)CC1)N1C(=O)[C@@H](N2C(=O)OC[C@@H]2c2ccccc2)[C@H]1/C=C/c1ccccc1` [Example 182], the IC50 was 1.52 nM. As to `COc1cccc(CNC(=O)[C@H](CCC(=O)N2CCN(C3CCCCC3)CC2)N2C(=O)[C@@H](N3C(=O)OC[C@@H]3c3ccccc3)[C@H]2/C=C/c2ccccc2)c1` [Example 183], the IC50 was under 10 nM. Regarding `O=C(NCc1cccc(F)c1)[C@H](CCC(=O)N1CCN(C2CCCCC2)CC1)N1C(=O)[C@@H](N2C(=O)OC[C@@H]2c2ccccc2)[C@H]1/C=C/c1ccccc1` [Example 184], the IC50 is under 10 nM. Same read-out and setting: for `O=C(NCc1cc(F)cc(F)c1)[C@H](CCC(=O)N1CCN(C2CCCCC2)CC1)N1C(=O)[C@@H](N2C(=O)OC[C@@H]2c2ccccc2)[C@H]1/C=C/c1ccccc1` [Example 185] the value was 1.27 nM. Turning to `O=C(NCc1ccc(F)c(Cl)c1)[C@H](CCC(=O)N1CCN(C2CCCCC2)CC1)N1C(=O)[C@@H](N2C(=O)OC[C@@H]2c2ccccc2)[C@H]1/C=C/c1ccccc1` [Example 186], the concentration for half-maximal inhibition (IC50) was under 10 nM.

As for `O=C(NCc1cccc(Cl)c1)[C@H](CCC(=O)N1CCN(C2CCCCC2)CC1)N1C(=O)[C@@H](N2C(=O)OC[C@@H]2c2ccccc2)[C@H]1/C=C/c1ccccc1` [Example 187], the IC50 stood at 1 nM. The same measure, in the same setting: for `O=C(NCc1cc(C(F)(F)F)cc(C(F)(F)F)c1)[C@H](CCC(=O)N1CCN(C2CCCCC2)CC1)N1C(=O)[C@@H](N2C(=O)OC[C@@H]2c2ccccc2)[C@H]1/C=C/c1ccccc1` [Example 188] the value was 7.26 nM.

Take `O=C(NCc1cccc([N+](=O)[O-])c1)[C@H](CCC(=O)N1CCN(C2CCCCC2)CC1)N1C(=O)[C@@H](N2C(=O)OC[C@@H]2c2ccccc2)[C@H]1/C=C/c1ccccc1` [Example 189]: the IC50 is 1.7 nM and the Ki is 1.04 nM. Regarding `O=C(NCc1cccc(Br)c1)[C@H](CCC(=O)N1CCN(C2CCCCC2)CC1)N1C(=O)[C@@H](N2C(=O)OC[C@@H]2c2ccccc2)[C@H]1/C=C/c1ccccc1` [Example 190], the IC50 was 0.88 nM and the affinity, expressed as Ki, was 0.54 nM.

Regarding `O=C(NCc1ccccc1)[C@H](CCC(=O)N1CCN(C2CCCCC2)CC1)N1C(=O)[C@@H](N2C(=O)OC[C@@H]2c2ccccc2)[C@H]1/C=C/c1ccccc1` [Example 191], the IC50 was determined as 2.92 nM and the Ki came to 1.79 nM. Regarding `Cc1ccccc1CNC(=O)[C@H](CCC(=O)N1CCN(C2CCCCC2)CC1)N1C(=O)[C@@H](N2C(=O)OC[C@@H]2c2ccccc2)[C@H]1/C=C/c1ccccc1` [Example 192], the IC50 was under 10 nM. On to `Cc1cccc(CNC(=O)[C@H](CCC(=O)N2CCN(C3CCCCC3)CC2)N2C(=O)[C@@H](N3C(=O)OC[C@@H]3c3ccccc3)[C@H]2/C=C/c2ccccc2)c1` [Example 193], for which the IC50 stood at 1.17 nM and the Ki amounted to 0.72 nM. Take `Cc1ccc(CNC(=O)[C@H](CCC(=O)N2CCN(C3CCCCC3)CC2)N2C(=O)[C@@H](N3C(=O)OC[C@@H]3c3ccccc3)[C@H]2/C=C/c2ccccc2)cc1` [Example 194]: the IC50 was under 100 nM. With `CC(NC(=O)[C@H](CCC(=O)N1CCN(C2CCCCC2)CC1)N1C(=O)[C@@H](N2C(=O)OC[C@@H]2c2ccccc2)[C@H]1/C=C/c1ccccc1)c1ccccc1` (stereo partly shown) [Example 195], the IC50 is under 50 nM. On the same count and under the same terms, for `CN(Cc1ccccc1)C(=O)[C@H](CCC(=O)N1CCN(C2CCCCC2)CC1)N1C(=O)[C@@H](N2C(=O)OC[C@@H]2c2ccccc2)[C@H]1/C=C/c1ccccc1` [Example 196] the value was under 100 nM. Still for that read-out and setting: for `Cc1cc(C)cc(CNC(=O)[C@H](CCC(=O)N2CCN(C3CCCCC3)CC2)N2C(=O)[C@@H](N3C(=O)OC[C@@H]3c3ccccc3)[C@H]2/C=C/c2ccccc2)c1` [Example 199] the value was under 10 nM.

As for `O=C(NCCc1ccccc1)[C@H](CCC(=O)N1CCN(C2CCCCC2)CC1)N1C(=O)[C@@H](N2C(=O)OC[C@@H]2c2ccccc2)[C@H]1/C=C/c1ccccc1` [Example 200], the IC50 turned out to be 5.08 nM and the Ki was 3.11 nM. Turning to `COc1cc(CNC(=O)[C@H](CCC(=O)N2CCN(C3CCCCC3)CC2)N2C(=O)[C@@H](N3C(=O)OC[C@@H]3c3ccccc3)[C@H]2/C=C/c2ccccc2)cc(OC)c1` [Example 201], the IC50 was determined as 10.5 nM and the Ki came out at 6.43 nM.

Take `COc1cccc([C@H](C)NC(=O)[C@H](CCC(=O)N2CCN(C3CCCCC3)CC2)N2C(=O)[C@@H](N3C(=O)OC[C@@H]3c3ccccc3)[C@H]2/C=C/c2ccccc2)c1` [Example 203]: the IC50 was found to be 2.46 nM and the Ki came out at 1.5 nM. With `CC(C)(NC(=O)[C@H](CCC(=O)N1CCN(C2CCCCC2)CC1)N1C(=O)[C@@H](N2C(=O)OC[C@@H]2c2ccccc2)[C@H]1/C=C/c1ccccc1)c1ccccc1` [Example 204], the IC50 amounted to 6 nM and the affinity, expressed as Ki, was 3.7 nM. With `CN(Cc1cccc(C(F)(F)F)c1)C(=O)[C@H](CCC(=O)N1CCN(C2CCCCC2)CC1)N1C(=O)[C@@H](N2C(=O)OC[C@@H]2c2ccccc2)[C@H]1/C=C/c1ccccc1` [Example 205], the IC50 was 0.34 nM and the Ki is 0.21 nM. `C[C@H](NC(=O)[C@H](CCC(=O)N1CCN(C2CCCCC2)CC1)N1C(=O)[C@@H](N2C(=O)OC[C@@H]2c2ccccc2)[C@H]1/C=C/c1ccccc1)c1ccccc1` [Example 206]: the IC50 was determined as 1.58 nM and the Ki came out at 0.97 nM.

In the case of `O=C(NC1(c2ccccc2)CC1)[C@H](CCC(=O)N1CCN(C2CCCCC2)CC1)N1C(=O)[C@@H](N2C(=O)OC[C@@H]2c2ccccc2)[C@H]1/C=C/c1ccccc1` [Example 207], the IC50 worked out at 4.48 nM and the Ki is 2.74 nM. On the same counts, the results for `O=C(NCc1ccccn1)[C@H](CCC(=O)N1CCN(C2CCCCC2)CC1)N1C(=O)[C@@H](N2C(=O)OC[C@@H]2c2ccccc2)[C@H]1/C=C/c1ccccc1` [Example 208] are 16.3 nM and 10 nM.

For `O=C(NCc1cccnc1)[C@H](CCC(=O)N1CCN(C2CCCCC2)CC1)N1C(=O)[C@@H](N2C(=O)OC[C@@H]2c2ccccc2)[C@H]1/C=C/c1ccccc1` [Example 209], the IC50 was determined as 16 nM and the inhibition constant Ki was determined as 9.8 nM.

For `O=C(NCc1ccncc1)[C@H](CCC(=O)N1CCN(C2CCCCC2)CC1)N1C(=O)[C@@H](N2C(=O)OC[C@@H]2c2ccccc2)[C@H]1/C=C/c1ccccc1` [Example 210], the IC50 amounted to 29.5 nM and the Ki worked out at 18.1 nM. Turning to `O=C(NCc1ccco1)[C@H](CCC(=O)N1CCN(C2CCCCC2)CC1)N1C(=O)[C@@H](N2C(=O)OC[C@@H]2c2ccccc2)[C@H]1/C=C/c1ccccc1` [Example 211], the IC50 stood at 5.37 nM and affinity was put at a Ki of 3.29 nM.
